# Experimental data taken from PMC9905339 (Biochemistry, 2023).
# Tests used:
# Rv0099 = Rv0099 (Mycobacterium tuberculosis, UniProt P9WQ55)
# MmaE = MmaE (Mycobacterium marinum, UniProt B2HKM3); assay: LC-HRMS of Py-AP after tetrazine click; format: biochemical; settings: α-KG, Fe(II), 50 mM HEPES pH 8.0, room temperature
# MmaA = MmaA (Mycobacterium marinum, UniProt B2HKL9)
# Sequence of MmaA (B2HKL9 whole entry): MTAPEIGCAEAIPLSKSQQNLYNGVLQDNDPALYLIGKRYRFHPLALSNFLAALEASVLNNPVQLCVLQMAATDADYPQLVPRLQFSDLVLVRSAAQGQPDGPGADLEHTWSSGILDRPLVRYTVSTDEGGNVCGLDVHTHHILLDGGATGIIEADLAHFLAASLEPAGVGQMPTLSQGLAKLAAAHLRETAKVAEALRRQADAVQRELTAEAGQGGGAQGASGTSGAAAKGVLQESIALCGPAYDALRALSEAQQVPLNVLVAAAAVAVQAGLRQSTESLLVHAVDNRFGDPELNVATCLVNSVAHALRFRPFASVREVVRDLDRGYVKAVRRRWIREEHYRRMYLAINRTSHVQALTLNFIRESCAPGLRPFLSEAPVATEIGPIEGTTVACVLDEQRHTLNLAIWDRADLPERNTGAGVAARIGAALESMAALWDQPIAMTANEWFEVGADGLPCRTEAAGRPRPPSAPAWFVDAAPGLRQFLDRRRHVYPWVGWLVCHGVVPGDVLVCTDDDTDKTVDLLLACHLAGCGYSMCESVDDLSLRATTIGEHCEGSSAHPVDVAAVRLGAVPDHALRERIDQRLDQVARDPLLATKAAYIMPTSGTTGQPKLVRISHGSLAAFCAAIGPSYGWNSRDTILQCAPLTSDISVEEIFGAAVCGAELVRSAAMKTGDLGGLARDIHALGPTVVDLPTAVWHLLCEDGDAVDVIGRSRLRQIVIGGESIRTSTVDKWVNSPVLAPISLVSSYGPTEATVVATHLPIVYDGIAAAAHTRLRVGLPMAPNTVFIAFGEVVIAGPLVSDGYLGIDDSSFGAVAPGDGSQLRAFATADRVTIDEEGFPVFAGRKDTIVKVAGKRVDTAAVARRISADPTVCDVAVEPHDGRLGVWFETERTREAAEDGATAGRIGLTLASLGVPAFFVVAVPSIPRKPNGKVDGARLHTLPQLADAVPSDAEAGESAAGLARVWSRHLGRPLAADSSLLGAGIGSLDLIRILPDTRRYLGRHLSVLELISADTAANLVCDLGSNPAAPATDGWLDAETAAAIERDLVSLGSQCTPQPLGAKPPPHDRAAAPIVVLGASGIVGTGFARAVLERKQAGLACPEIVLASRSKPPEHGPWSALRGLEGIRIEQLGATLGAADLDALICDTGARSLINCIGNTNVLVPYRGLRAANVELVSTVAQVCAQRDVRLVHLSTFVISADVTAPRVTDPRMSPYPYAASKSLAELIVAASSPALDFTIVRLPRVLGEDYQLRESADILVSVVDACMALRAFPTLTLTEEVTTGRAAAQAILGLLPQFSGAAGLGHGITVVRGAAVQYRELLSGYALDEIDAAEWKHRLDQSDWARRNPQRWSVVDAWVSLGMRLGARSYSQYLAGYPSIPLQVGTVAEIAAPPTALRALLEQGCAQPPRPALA
# Sequence of Rv0099 (P9WQ55 whole entry): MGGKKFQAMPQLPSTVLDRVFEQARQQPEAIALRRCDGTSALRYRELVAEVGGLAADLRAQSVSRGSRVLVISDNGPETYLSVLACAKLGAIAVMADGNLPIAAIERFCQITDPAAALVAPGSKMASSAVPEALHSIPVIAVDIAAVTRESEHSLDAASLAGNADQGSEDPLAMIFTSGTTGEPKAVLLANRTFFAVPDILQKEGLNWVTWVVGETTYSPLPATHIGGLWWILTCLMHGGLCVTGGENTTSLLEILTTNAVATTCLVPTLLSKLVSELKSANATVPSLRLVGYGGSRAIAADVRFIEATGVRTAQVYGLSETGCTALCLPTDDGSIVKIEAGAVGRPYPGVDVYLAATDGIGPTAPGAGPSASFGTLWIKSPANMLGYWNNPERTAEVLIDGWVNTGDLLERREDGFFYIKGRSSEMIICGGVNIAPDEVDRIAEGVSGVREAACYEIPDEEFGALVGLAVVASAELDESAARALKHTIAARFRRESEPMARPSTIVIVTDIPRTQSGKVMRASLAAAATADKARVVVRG
# Sequence of MmaE (B2HKM3 whole entry): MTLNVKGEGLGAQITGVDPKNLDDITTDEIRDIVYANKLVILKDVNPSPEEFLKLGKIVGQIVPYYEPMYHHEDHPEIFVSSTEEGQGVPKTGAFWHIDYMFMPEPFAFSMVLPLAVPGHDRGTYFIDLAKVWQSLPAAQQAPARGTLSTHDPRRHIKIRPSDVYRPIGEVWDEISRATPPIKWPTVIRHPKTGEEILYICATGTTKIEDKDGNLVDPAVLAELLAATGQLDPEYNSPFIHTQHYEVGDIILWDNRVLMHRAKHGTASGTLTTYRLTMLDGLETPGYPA
Compound,LC-HRMS intact protein and Ppant ejection; loading onto holo-Rv0100 (Rv0099),other results
CCCCCCCC=CC(=O)O [2-decenoic acid],"Rv0099-catalyzed reaction containing holo-Rv0100, 2-decenoic acid, and ATP",
"CCCCCCCC(CC(=O)O)NCC(=O)O (stereo not shown) [CADA, 3-[(carboxymethyl)amino]decanoic acid]",,LC-HRMS of Py-AP after tetrazine click; turnover (MmaE): INDA was only detected from the assay with MmaE
"[C-]#[N+]C(CCCCCCC)CC(=O)O (stereo not shown) [INDA, 3-isocyanodecanoic acid]","INDA, ATP, Rv0099, and Rv0100 yielded the expected product, INDA-S-Rv0100",
NCCCC[C@H](N)C(=O)O [lysine],,"LC-HRMS of INLP6; coupled assay with Rv0097/MmaE and Rv0098-0100 (MmaA): together with 2-decenoic acid, ATP, Gly, α-KG, Lys, and NADPH, generated INLP6"
